Measurements taken from patent US11352394B2, “Cyclic cell penetrating peptides comprising beta-hairpin motifs and methods of making and using thereof” (Ohio State Innovation Foundation, priority 2016, dated 2022).

What was measured:
Keap1-Nrf2 interaction = Keap1-Nrf2 interaction (Homo sapiens, UniProt Q14145); experiment: Fluorescence anisotropy-based competition assay, inhibition of Keap1-Nrf2 peptide interaction; assay type: binding; conditions: FA competition with fluorescently labeled Nrf2 peptide and Keap1
Chain of Keap1-Nrf2 interaction (Q14145 321-609 limits assumed): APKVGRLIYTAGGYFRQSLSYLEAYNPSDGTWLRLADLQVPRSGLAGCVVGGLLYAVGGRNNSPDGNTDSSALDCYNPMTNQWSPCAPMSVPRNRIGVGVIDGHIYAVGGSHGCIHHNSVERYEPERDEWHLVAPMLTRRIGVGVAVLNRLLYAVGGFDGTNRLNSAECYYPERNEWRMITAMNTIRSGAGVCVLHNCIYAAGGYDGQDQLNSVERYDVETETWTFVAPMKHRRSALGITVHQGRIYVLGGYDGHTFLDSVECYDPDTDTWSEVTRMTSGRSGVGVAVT
Procedure: The percentage of inhibition was calculated from the fluorescence anisotropy decrease by using equation % Inhibition=(FAmax−FAobs)/(FAmax−FAmin)×100% and plotted against the inhibitor concentration.

[1] = tested on: Nrf2 protein level, HEK293 cells; experiment: Western blot of Nrf2 protein level in cytoplasm and nucleus of HEK293 cells; assay type: cell-based, human; conditions: varying doses
Source text: The cellular activity of Keap1-Nrf2 Inhibitor BH15 was characterized, and it was observed that BH15 is biologically active in cell-based assays. Varying doses of BH15 were provided to HEK293 cells in culture. After a period of time, the cells were lysed, and cytosolic fractions were separated from nuclear fractions.
(§1) BH15 enters human cells, binds and inhibits the function of Keap1 (which promotes the ubiquitination and degradation of Nrf2), resulting in increased intracellular levels of Nrf2, a transcription factor. […] This in turn results in the increased levels of HO-1, a protein whose expression is controlled by Nrf2.

[2] = tested on: HO-1 protein (Keap1-Nrf2-ARE pathway), HEK293 cells; experiment: Anti-HO1 immunoblot of HO-1 protein level in HEK293 cells; assay type: cell-based, human; conditions: varying doses
Procedure: FIG. 5 is an image from a Western blot analysis of HO-1 protein levels in HEK293 cells untreated or after treatment with SFN (10 μM) or a cyclic β-hairpin peptide (40 μM).
FIG. 8 is a western blot showing the effect of peptide BH15 on the protein level of HO-1, a protein downstream of the Keap1-Nrf2-ARE pathway. SFN, a small-molecule positive control; blank, no inhibitor.
The cellular activity of Keap1-Nrf2 inhibitors BH13-18 was assessed by examining their effects on the expression levels of HO-1 protein, by anti-HO1 immunoblot analysis. HO-1 is an antioxidant enzyme under the transcriptional control of Nrf2 binding to the ARE, and disruption of the Keap1-Nrf2 interaction is expected to increase the protein level of HO-1.
as §1

IC50 (Keap1-Nrf2 interaction): ~160 nM
SMILES: CC(C)C[C@@H]1NC(=O)[C@H](Cc2ccccc2)NC(=O)[C@H](CCCNC(=N)N)NC(=O)[C@H](CCCNC(=N)N)NC(=O)[C@@H]2CCCN2C(=O)[C@H]2CCCN2C(=O)[C@@H](CCCNC(=N)N)NC(=O)[C@H](Cc2ccc3ccccc3c2)NC(=O)[C@H](Cc2ccccc2)NC(=O)[C@H](Cc2ccccc2)NC(=O)[C@H](CCC(=O)O)NC(=O)CNC(=O)[C@H]([C@@H](C)O)NC(=O)[C@H](CCC(=O)O)NC(=O)[C@@H]2CCCN2C(=O)[C@H](CC(=O)O)NC1=O [BH15, cyclo(F-F-Φ-r-p-P-R-R-F-L-D-P-E-T-G-E)]
Nrf2 levels in cytosolic and nuclear fractions [1]: dose-dependently increased | HO-1 level, dose response [2]: dose-dependently increased
